Source: patent publication US20250018019A1, “TREATMENT OF INTERFERON DRIVEN INFLAMMATION” (The Provost, Fellows, Foundation Scholars and the other …, priority 2023, published 2025)
Where a name gives a salt, the structure may show the parent alone.

What was measured:
human PBMCs = experiment: ELISA of IFN-β release from human PBMCs; format: cell-based; details: human PBMCs pre-treated, LPS 4 h
Experimental: Human blood samples from healthy donors were collected and processed at the School of Biochemistry and Immunology in TBSI (TCD). Blood samples were obtained anonymously and written informed consent for the use of blood for research purposes has been obtained from the donors. All the procedures involving experiments on human samples have been approved by the School of Biochemistry and Immunology Research Ethics Committee (TCD). Experiments were conducted according to the TCD guide on good research practice, which follows the guidelines detailed in the National Institutes of Health Belmont Report (1978) and the Declaration of Helsinki. […] The remaining pellet of mononuclear cells was resuspended, counted, and plated at 1×10^6 cells/ml in RPMI supplemented with FCS (10%) and penicillin/streptomycin (1%). […]
DuoSet ELISA kits for IL-1β, TNFα, IL-6, IL-10, and GDF15 were purchased from R&D Systems and were carried out according to the manufacturer's instructions with appropriately diluted cell supernatants added to each plate in duplicate or triplicate. IFN-β was determined using DuoSet ELISA kit from R&D Systems or Abcam (ab252363). […] Absorbance at 450 nm was quantified using a FLUOstar Optima plate reader. […]

BMDMs [1] = experiment: Western blotting of signalling proteins in BMDMs; format: cell-based, mouse; details: for IFN-β-induced STAT1 and JAK1 phosphorylation / upstream kinases (AKT, JNK, ERK and p38), total and phospho levels: BMDMs pre-treated with DMSO, FHIN1 or DMF
Experimental: (§1) All compounds used DMSO as a vehicle except for 4-hydroxy tamoxifen (EtOH), NAC (PBS), and AOAA for tracing experiments (Media). LPS was used at a concentration of 100 ng/ml for indicated timepoints (2, 3, 4, 6, 8, 24, 48 h). FHIN1 (10 or 20 μM), MMF (50 or 100 μM), DMF (25 μM), AOAA (5 mM), oligomycin (10 μM), CCCP (50 μM) NAC (1 mM), and IMT1 (10 μM) pre-treatments were performed for 3 h prior the addition of LPS. Cells were treated with valinomycin (10 nM) 15 mins before LPS stimulation. Anti-CD210 or IgG control (10 μg/ml) antibodies were added to cells 1 h prior to LPS stimulation. Recombinant mouse IL-10 protein (100 ng/ml) was added to cells at the same time as LPS. Cells were treated with IFN-B1 (220 ng/ml) for 3 h. Cells were treated with C-178 (1 μM) 1 h prior to LPS stimulation or transfection with 2′3′-cGAMP (1.5 μg/ml) for 4 hrs to achieve cGAS-STING activation. Cells were treated with ODN 2088 (1 μM) for 1 hr prior to LPS stimulation or transfection with CPG ODN 1826 (1.5 μg/ml) to achieve TLR9 activation. 3 different timepoints of 4-hydroxy tamoxifen (TAM) (600 nM or 2 μM) or EtOH treatment were performed-these are specified in the individual figure legends. For ‘48 h’ treatments EtOH/TAM was added on day 5 of 6 during the BMDM differentiation protocol. On day 6 they were plated with EtOH/TAM (left overnight) and treated the following day. For ‘72 h’ treatments EtOH/TAM was added on day […] of 6 during the BMDM differentiation protocol. On day 6 they were plated with EtOH/TAM (left overnight) and treated the following day. For ‘96 h’ treatments EtOH/TAM was added on day […] of 6 during the BMDM differentiation protocol. On day 6 they were plated with EtOH/TAM and treated 2 days later.
Supernatant was removed from cells following stimulation and lysates were harvested in 30-50 μl lysis buffer (0.125 M Tris pH 6.8, 10% glycerol, 0.02% SDS, 5% DTT) Lysates were subsequently heated to 95° C. for 5 mins to denature proteins. SDS-PAGE was used to resolve proteins by molecular weight. Samples were boiled at 95° C. for 5 mins prior to loading into a 5% stacking gel. The percentage resolving gel depended on the molecular weight of the given protein. The Bio-Rad gel running system was used to resolve proteins and the Bio-Rad wet transfer system was used for the electrophoretic transfer of proteins onto PVDF membrane. Following transfer, the membrane was incubated in milk powder (5% in TBST) for 1 hr and subsequently incubated in primary antibody rolling overnight at 4° C. Primary antibodies targeting phospho-proteins were diluted in BSA (5% in TBST) as opposed to milk. The membrane was incubated for 1 hr with secondary antibody (diluted in 5% milk powder) at room temperature. Prior to visualisation, the membrane was immersed in WesternBright ECL Spray (Advansta). Protein visualisation took place on a ChemiDoc MPTM Imaging System (Bio-Rad), and both chemiluminescent and white light images were taken. Images were analysed using Image Lab 6.0.1 (Bio-Rad).

BMDMs [2] = experiment: Flow cytometry, CellROX and TMRM staining; format: cell-based, mouse; details: LPS 4 h; for mitochondrial membrane potential (MMP), TMRM staining: BMDMs pre-treated, oligomycin 10 μM, CCCP 50 μM, valinomycin 10 nM, MMF 50 or 100 μM
Experimental: as §1
Cells were plated in 12-well plates and treated as desired. CellROX Green (5 μM, Thermo Fisher) or TMRM (20 nM, Thermo Fisher) was added to cells 30 mins prior to end of cell treatments. Cells were washed once in PBS and scraped into 200 μl FACS buffer (2 mM EDTA, 0.5% FCS in PBS). Acquisition of samples was performed on a BD Accuri C6 flow cytometer. The gating strategy used for all flow cytometry experiments consisted of debris exclusion by FSC-A vs SSC-A analysis and subsequent doublet exclusion by FSC-A vs FSC-H analysis. A sample gating strategy is provided in Supplementary FIG. 2. 10,000 cells was acquired per condition. Mean fluorescence intensity (MFI) was calculated for all cells in each condition using FlowJo v10.

| Structure (SMILES) | LPS-induced IFN-β release (human PBMCs) | LPS-induced IL-1β expression (IL-1β levels) (BMDMs [1]; BMDMs pre-treated) | LPS-induced p65 phosphorylation (BMDMs [1]; BMDMs pre-treated) | IFN-β-induced STAT1 and JAK1 phosphorylation (BMDMs [1]) | upstream kinases (AKT, JNK, ERK and p38), total and phospho levels (BMDMs [1]) | LPS-induced TRAF3 levels (BMDMs [1]; BMDMs pre-treated, LPS 4 h) | TBK1 phosphorylation (BMDMs [1]; BMDMs pre-treated, LPS 4 h) | STAT3 phosphorylation (BMDMs [1]; BMDMs pre-treated, co-treated with recombinant IL-10 100 ng/ml, LPS 4 h) | reactive oxygen species (ROS) production (CellROX MFI) (BMDMs [2]; BMDMs pre-treated 3 h) | mitochondrial membrane potential (MMP), TMRM staining (BMDMs [2]) |
| --- | --- | --- | --- | --- | --- | --- | --- | --- | --- | --- |
| CCOC(=O)[C@@]12CCCC=C1N(Cc1ccc(-c3ccccc3)cc1)C(=O)[C@H]2CC(=O)NC [FHIN1, Fumarate hydratase-IN-1] | boosted | not increased | modestly augment | limited | did not observe changes | not increased | increased | failed to impair | increased | significantly increased staining |
| COC(=O)/C=C/C(=O)OC [DMF, dimethyl fumarate] | suppressed | – | modestly augment | limited | did not observe changes | – | – | – | – | no effect |
